In US20160206726A1, “IMMUNOTHERAPY” (priority 2013, published 2016):

Legend:
healthy B cells = test: Healthy B cells pulsed with cyclic or linear peptide with or without protease inhibitor cocktail; IFN-γ assayed for T cell recognition; type: cell-based; conditions: 10 ug peptide
Protocol: LCLs (tumour B cells) or healthy B cells were incubated with or without a protease inhibitor cocktail for 2 hrs at 37° C. […] The amino acid sequence of the cyclic peptide was […] (SEQ ID No: 278). The protease cleavage sequence “FR” is recognised by Cathepsin B and the T cell epitope […] is restricted to HLA-A*0201. The cyclic peptide was obtained from JPT Peptide Technologies. These cells were incubated with peptide-specific T cells overnight and IFN-γ assayed for T cell recognition of the processed peptide.

LCL target cells = test: Comparison of the plasma stability of cyclic peptide and APEC in LCL model (IFN-γ T cell recognition after plasma treatment); type: in vitro ADME, human; conditions: no target cells
Protocol: (§1) These cells were incubated with peptide-specific T cells overnight and IFN-γ assayed for T cell recognition of the processed peptide.

LCLs (tumour B cells) [1] = test: LCL pulsed with cyclic or linear peptide with or without protease inhibitor cocktail; IFN-γ assayed for T cell recognition; type: cell-based; conditions: 10 ug peptide
Protocol: LCLs (tumour B cells) were incubated with or without a protease inhibitor cocktail for 2 hrs at 37° C. […] (SEQ ID No: 278). The protease cleavage sequence “FR” is recognised by Cathepsin B and the T cell epitope […] is restricted to HLA-A*0201. […] These cells were incubated with peptide-specific T cells overnight and IFN-γ assayed for T cell recognition of the processed peptide.

[2] = tested on: SW620 cells (colorectal cell line); test: Plasma stability of cyclic peptide in colorectal cancer model (IFN-γ T cell recognition after plasma treatment); type: in vitro ADME, human; conditions: no target cells
Protocol: as §1

LCLs (tumour B cells) [3] = test: Plasma stability of cyclic peptide in LCL model (IFN-γ T cell recognition after plasma treatment); type: in vitro ADME, human
Protocol: LCLs (tumour B cells) were incubated with or without a protease inhibitor cocktail (PIC) for 2 hrs at 37° C. […] These cells were incubated with peptide-specific T cells overnight and IFN-γ assayed for T cell recognition of the processed peptide.

[4] = tested on: SW620 cells (colorectal cell line); test: SW620 colorectal cell line pulsed with cyclic or linear peptide with or without protease inhibitor cocktail; IFN-γ assayed for T cell recognition; type: cell-based; conditions: 10 ug peptide
Protocol: SW620 cells (colorectal cell line) incubated with or without a protease inhibitor cocktail for 2 hrs at 37° C. […] These cells were incubated with peptide-specific T cells overnight and IFN-γ assayed for T cell recognition of the processed peptide.
As a control for this, T cells alone were treated with the cyclic peptide. T cells should not process the cyclic form of the peptide but would be able to present the linear form and therefore the level of IFN-γ produced in this control would account for the amount of linear peptide present in the vial of cyclic peptide.

[5] = protease inhibitor cocktail 2 hrs at 37° C

FRGGANLVPMVATVAA [cyclic peptide]
amount of IFN-γ with healthy B cells compared with LCL (healthy B cells): significantly decreased amount of IFN-γ compared to the LCL treated with the cyclic peptide | T cell recognition (IFN-γ) of pulsed healthy B cells, with versus without protease inhibitors (healthy B cells; [5]): little difference in the response | response of T cells alone labelled with the peptide, without and with serum treatment (LCL target cells): very small response to the peptide which then disappears upon treatment of the peptide with serum | response with the protease inhibitors compared with T cells cultured with the cyclic peptide alone (LCLs (tumour B cells) [1]): very similar to the level seen when T cells were cultured with the cyclic peptide alone | decrease in the T cell recognition in the presence of the protease inhibitors (LCLs (tumour B cells) [1]; [5]): ~75% | T cell recognition (IFN-γ) of pulsed target cells, with versus without protease inhibitors (LCLs (tumour B cells) [1]; protease inhibitor cocktail 2 hrs at 37° C, peptide-specific T cells overnight): much larger response to IFN-γ when cultured in the absence of the protease inhibitors | response of T cells alone labelled with the peptide, without and with serum treatment [2]: very small response to the peptide which then disappears upon treatment of the peptide with serum | effect of protease inhibitor cocktail on response to plasma-treated peptide (LCLs (tumour B cells) [3]; LCLs pre-incubated with PIC, peptide treated 4 hrs with human plasma): there is a decrease when target cells were pre-incubated with the protease inhibitor cocktail | response of T cells alone labelled with the peptide, without and with serum treatment (LCLs (tumour B cells) [3]; T cells alone, no target cells): very small response to the peptide which then disappears upon treatment of the peptide with serum | response with the protease inhibitors compared with T cells cultured with the cyclic peptide alone [4]: very similar to the level seen when T cells were cultured with the cyclic peptide alone | T cell recognition (IFN-γ) of pulsed target cells, with versus without protease inhibitors [4, 5]: much larger response to IFN-γ when cultured in the absence of the protease inhibitors | decrease in the T cell recognition in the presence of the protease inhibitors [4, 5]: ~65%
